# Results from the supplement of paper PMC11208160.
# Test: recombinant barcode read abundance after kanamycin selection (control-corrected) (log10(CPM+1)); higher = more efficient recombination; sequences stand for … in AGTGCAGAGAAAATCGGCCAGTTTTCTCTGCCTGCAGTCCGCATGCCGT…ATTTATGCAGCGGACTGCCTTTCTCCCAAAGTGATAAACCGGACAGTATCATGGACCGGTTTTCCCGGTAATCCGTATTTGCAAGGTTGGTTTCACT; site = the 11-nt target
# Method in brief: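 For this pooled screen, each oligo contained a promoter, a target, a barcode and the J23119-driven first 104 bases of the bridge RNA. Gibson cloning placed it into a vector supplying the remaining 73 bp and a T7-inducible recombinase, and the pool was co-electroporated into E. coli with a donor plasmid. Recombination efficiency is derived from barcode counts per million at recombinant junctions after averaging and control correction, and is expressed on a log scale as log10(CPM+1), with selection on chloramphenicol/ampicillin/kanamycin plus 0.1 mM IPTG against a chloramphenicol/ampicillin LB agar control.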
row,Sequence,recombinant barcode read abundance (log10)
1,"ATGTCCCAGTGGGTTCTAACCTGTTGCTCCT [ATGTCCCCTGA_LTGcore_AG_RTGcore_AG] (site ATGTCCCCTGA) (LTG core: AG, RTG core: AG)",0.0318
2,"ATGTCCCCGTGGGTTCTAACCTGTTGCTCCG [ATGTCCCCTGA_LTGcore_CG_RTGcore_CG] (site ATGTCCCCTGA) (LTG core: CG, RTG core: CG)",0.163
3,"ATGTCCCCTTGGGTTCTAACCTGTTGCTCAC [ATGTCCCCTGA_LTGcore_CT_RTGcore_GT] (site ATGTCCCCTGA) (LTG core: CT, RTG core: GT)",0.0456
4,"ATGTCCCCTTGGGTTCTAACCTGTTGCTCCA [ATGTCCCCTGA_LTGcore_CT_RTGcore_TG] (site ATGTCCCCTGA) (LTG core: CT, RTG core: TG)",0.0151
5,"ATGTCCCCTTGGGTTCTAACCTGTTGCTCCT [ATGTCCCCTGA_LTGcore_CT_RTGcore_AG] (site ATGTCCCCTGA) (LTG core: CT, RTG core: AG)",0.205
6,"ATGTCCCCTTGGGTTCTAACCTGTTGCTCTG [ATGTCCCCTGA_LTGcore_CT_RTGcore_CA] (site ATGTCCCCTGA) (LTG core: CT, RTG core: CA)",0.00868
7,"ATGTCCCGCTGGGTTCTAACCTGTTGCTCAG [ATGTCCCCTGA_LTGcore_GC_RTGcore_CT] (site ATGTCCCCTGA) (LTG core: GC, RTG core: CT)",0
8,"ATGTCCCGGTGGGTTCTAACCTGTTGCTCCC [ATGTCCCCTGA_LTGcore_GG_RTGcore_GG] (site ATGTCCCCTGA) (LTG core: GG, RTG core: GG)",0.109
9,"CATATTAAATGGGTTCTAACCTGTTGCCTTT [CATATTACTAG_LTGcore_AA_RTGcore_AA] (site CATATTACTAG) (LTG core: AA, RTG core: AA)",1.4
10,"CATATTAACTGGGTTCTAACCTGTTGCCTGT [CATATTACTAG_LTGcore_AC_RTGcore_AC] (site CATATTACTAG) (LTG core: AC, RTG core: AC)",0.119
11,"CATATTAAGTGGGTTCTAACCTGTTGCCTAG [CATATTACTAG_LTGcore_AG_RTGcore_CT] (site CATATTACTAG) (LTG core: AG, RTG core: CT)",0.0215
12,"CATATTAATTGGGTTCTAACCTGTTGCCTAT [CATATTACTAG_LTGcore_AT_RTGcore_AT] (site CATATTACTAG) (LTG core: AT, RTG core: AT)",0.0885
13,"CATATTACCTGGGTTCTAACCTGTTGCCTGG [CATATTACTAG_LTGcore_CC_RTGcore_CC] (site CATATTACTAG) (LTG core: CC, RTG core: CC)",0.638
14,"CATATTACGTGGGTTCTAACCTGTTGCCTCG [CATATTACTAG_LTGcore_CG_RTGcore_CG] (site CATATTACTAG) (LTG core: CG, RTG core: CG)",0.443
15,"CATATTACTTGGGTTCTAACCTGTTGCCTCG [CATATTACTAG_LTGcore_CT_RTGcore_CG] (site CATATTACTAG) (LTG core: CT, RTG core: CG)",0.0475
16,"CATATTACTTGGGTTCTAACCTGTTGCCTGA [CATATTACTAG_LTGcore_CT_RTGcore_TC] (site CATATTACTAG) (LTG core: CT, RTG core: TC)",0.138
17,"CATATTACTTGGGTTCTAACCTGTTGCCTGG [CATATTACTAG_LTGcore_CT_RTGcore_CC] (site CATATTACTAG) (LTG core: CT, RTG core: CC)",0.0433
18,"CATATTATGTGGGTTCTAACCTGTTGCCTAG [CATATTACTAG_LTGcore_TG_RTGcore_CT] (site CATATTACTAG) (LTG core: TG, RTG core: CT)",0.0521
19,"CGAGCCCAATGGGTTCTAACCTGTTGCTGAG [CGAGCCCCTCA_LTGcore_AA_RTGcore_CT] (site CGAGCCCCTCA) (LTG core: AA, RTG core: CT)",0.0167
20,"CGAGCCCACTGGGTTCTAACCTGTTGCTGAG [CGAGCCCCTCA_LTGcore_AC_RTGcore_CT] (site CGAGCCCCTCA) (LTG core: AC, RTG core: CT)",0.0532
21,"CGAGCCCAGTGGGTTCTAACCTGTTGCTGAG [CGAGCCCCTCA_LTGcore_AG_RTGcore_CT] (site CGAGCCCCTCA) (LTG core: AG, RTG core: CT)",0.139
22,"CGAGCCCATTGGGTTCTAACCTGTTGCTGAT [CGAGCCCCTCA_LTGcore_AT_RTGcore_AT] (site CGAGCCCCTCA) (LTG core: AT, RTG core: AT)",0.0704

row,Sequence,recombinant barcode read abundance (log10)
1,"CGAGCCCCCTGGGTTCTAACCTGTTGCTGAG [CGAGCCCCTCA_LTGcore_CC_RTGcore_CT] (site CGAGCCCCTCA) (LTG core: CC, RTG core: CT)",0.805
2,"CGAGCCCCTTGGGTTCTAACCTGTTGCTGAG [CGAGCCCCTCA_LTGcore_CT_RTGcore_CT] (site CGAGCCCCTCA) (LTG core: CT, RTG core: CT)",2.65
3,"CGAGCCCCTTGGGTTCTAACCTGTTGCTGGG [CGAGCCCCTCA_LTGcore_CT_RTGcore_CC] (site CGAGCCCCTCA) (LTG core: CT, RTG core: CC)",0.164
4,"CGAGCCCCTTGGGTTCTAACCTGTTGCTGTC [CGAGCCCCTCA_LTGcore_CT_RTGcore_GA] (site CGAGCCCCTCA) (LTG core: CT, RTG core: GA)",0.248
5,"CGAGCCCCTTGGGTTCTAACCTGTTGCTGTT [CGAGCCCCTCA_LTGcore_CT_RTGcore_AA] (site CGAGCCCCTCA) (LTG core: CT, RTG core: AA)",0.266
6,"CGAGCCCGATGGGTTCTAACCTGTTGCTGTC [CGAGCCCCTCA_LTGcore_GA_RTGcore_GA] (site CGAGCCCCTCA) (LTG core: GA, RTG core: GA)",0.188
7,"CGAGCCCTGTGGGTTCTAACCTGTTGCTGCA [CGAGCCCCTCA_LTGcore_TG_RTGcore_TG] (site CGAGCCCCTCA) (LTG core: TG, RTG core: TG)",0.646
8,"CGCGCCCCATGGGTTCTAACCTGTTGCGGAG [CGCGCCCCTCC_LTGcore_CA_RTGcore_CT] (site CGCGCCCCTCC) (LTG core: CA, RTG core: CT)",0.303
9,"CGCGCCCCATGGGTTCTAACCTGTTGCGGTG [CGCGCCCCTCC_LTGcore_CA_RTGcore_CA] (site CGCGCCCCTCC) (LTG core: CA, RTG core: CA)",0.162
10,"CGCGCCCCCTGGGTTCTAACCTGTTGCGGGG [CGCGCCCCTCC_LTGcore_CC_RTGcore_CC] (site CGCGCCCCTCC) (LTG core: CC, RTG core: CC)",0.117
11,"CGCGCCCCGTGGGTTCTAACCTGTTGCGGAG [CGCGCCCCTCC_LTGcore_CG_RTGcore_CT] (site CGCGCCCCTCC) (LTG core: CG, RTG core: CT)",0.167
12,"CGCGCCCCGTGGGTTCTAACCTGTTGCGGCG [CGCGCCCCTCC_LTGcore_CG_RTGcore_CG] (site CGCGCCCCTCC) (LTG core: CG, RTG core: CG)",0
13,"CGCGCCCCTTGGGTTCTAACCTGTTGCGGAA [CGCGCCCCTCC_LTGcore_CT_RTGcore_TT] (site CGCGCCCCTCC) (LTG core: CT, RTG core: TT)",0.319
14,"CGCGCCCCTTGGGTTCTAACCTGTTGCGGCC [CGCGCCCCTCC_LTGcore_CT_RTGcore_GG] (site CGCGCCCCTCC) (LTG core: CT, RTG core: GG)",0.215
15,"CGCGCCCCTTGGGTTCTAACCTGTTGCGGGG [CGCGCCCCTCC_LTGcore_CT_RTGcore_CC] (site CGCGCCCCTCC) (LTG core: CT, RTG core: CC)",0.105
16,"CGCGCCCGGTGGGTTCTAACCTGTTGCGGCC [CGCGCCCCTCC_LTGcore_GG_RTGcore_GG] (site CGCGCCCCTCC) (LTG core: GG, RTG core: GG)",0.307
17,"CGCGCCCTGTGGGTTCTAACCTGTTGCGGAG [CGCGCCCCTCC_LTGcore_TG_RTGcore_CT] (site CGCGCCCCTCC) (LTG core: TG, RTG core: CT)",0.301
18,"CGGTCCCCTTGGGTTCTAACCTGTTGCCACC [CGGTCCCCTTG_LTGcore_CT_RTGcore_GG] (site CGGTCCCCTTG) (LTG core: CT, RTG core: GG)",0.18
19,"CGGTCCCTATGGGTTCTAACCTGTTGCCATA [CGGTCCCCTTG_LTGcore_TA_RTGcore_TA] (site CGGTCCCCTTG) (LTG core: TA, RTG core: TA)",0.282
20,"CGGTCCCTGTGGGTTCTAACCTGTTGCCAAG [CGGTCCCCTTG_LTGcore_TG_RTGcore_CT] (site CGGTCCCCTTG) (LTG core: TG, RTG core: CT)",0.0242
21,"CGGTCCCTTTGGGTTCTAACCTGTTGCCAAA [CGGTCCCCTTG_LTGcore_TT_RTGcore_TT] (site CGGTCCCCTTG) (LTG core: TT, RTG core: TT)",0.0728
